Structures are written as SMILES.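 Grown in 96-well plates, cells were treated for 48 hours with each compound at five concentrations. Insufficient inhibition: endpoint recorded as highest concentration tested. Definition used: TGI = concentration required for complete inhibition of growth.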 Some results are limits rather than exact numbers.

Some test systems named below: 786-0 renal; ACHN renal; COLO 205 colon; HCT-15 colon; HL-60(TB) leukemia; M14 melanoma; MOLT-4 leukemia; NCI-H226 lung; OVCAR-3 ovarian; SF-539 CNS; TK-10 renal.
Holding throughout (assay): growth of human tumour cells (NCI), 48 h

Regarding `O=C1NC(N2CCCCC2)=N/C1=C\c1ccco1`, the TGI with 786-0 renal, in the test on ACHN renal, with COLO 205 colon, in the test on HCT-15 colon, in the test with HL-60(TB) leukemia and with M14 melanoma was greater than 100 µM in each case. For the same molecule, the TGI in the test on MOLT-4 leukemia, in the test on NCI-H226 lung, in the test with OVCAR-3 ovarian, in the test on SF-539 CNS and in the test on TK-10 renal was greater than 100 µM each time.

With `O=C1C2C3C=C4c5ccccc5N(c5ccccc5)C4([C@@H]2C(=O)N1c1ccc(F)cc1)[C@H]1C(=O)N(c2ccc(F)cc2)C(=O)[C@@H]31` (stereo not given in full), the TGI in the test on 786-0 renal, in the test with ACHN renal, in the test with COLO 205 colon, in the test on HCT-15 colon, in the test with HL-60(TB) leukemia and in the test on M14 melanoma was greater than 100 µM throughout. The TGI in the test with MOLT-4 leukemia, with NCI-H226 lung, in the test on OVCAR-3 ovarian, with SF-539 CNS and with TK-10 renal was greater than 100 µM each time.

On to `C1=Cc2cccc3occ(c23)C=C1`, for which the TGI was greater than 100 µM with 786-0 renal; greater than 100 µM in the test with ACHN renal; 90.7 µM with COLO 205 colon; greater than 100 µM in the test on HCT-15 colon; 48.2 µM in the test on HL-60(TB) leukemia; greater than 100 µM in the test with M14 melanoma. The TGI in the test with MOLT-4 leukemia was 79.4 µM; with NCI-H226 lung it was greater than 100 µM; in the test on OVCAR-3 ovarian it was greater than 100 µM; in the test with SF-539 CNS, greater than 100 µM; in the test with TK-10 renal, greater than 100 µM.

In the case of `COC(=O)/C(C#N)=C/c1cc(C(C)(C)C)c(O)c(C(C)(C)C)c1`, the TGI in the test on 786-0 renal is 12.2 µM; in the test on ACHN renal, greater than 31.3 µM; with COLO 205 colon it was 2.78 µM; with HCT-15 colon, 13 µM; with HL-60(TB) leukemia it was 4.47 µM; in the test with M14 melanoma, 13.6 µM. The TGI with MOLT-4 leukemia is greater than 29.6 µM; in the test with NCI-H226 lung, 9.6 µM; in the test on OVCAR-3 ovarian it was 5.55 µM; in the test with SF-539 CNS, 11 µM; in the test with TK-10 renal it was 12.9 µM.

As for `O=C1c2ccccc2C(=O)c2sc(Nc3ccc([N+](=O)[O-])cc3)nc21`, the TGI in the test on 786-0 renal amounted to 12.3 µM; with ACHN renal, 7.55 µM; with COLO 205 colon, 19 µM; in the test on HCT-15 colon, 18.9 µM; in the test on HL-60(TB) leukemia, 2.52 µM; in the test with M14 melanoma, 5.91 µM. The TGI came to 7.17 µM in the test on MOLT-4 leukemia; 35.9 µM in the test on NCI-H226 lung; 6.82 µM in the test with OVCAR-3 ovarian; 15.3 µM in the test on SF-539 CNS; 26.4 µM in the test on TK-10 renal.

On to `CCOC(=O)c1nc2cc(F)cc(F)c2[nH]c1=O`, for which the TGI in the test on 786-0 renal, in the test on ACHN renal, in the test with COLO 205 colon, in the test on HCT-15 colon, in the test with HL-60(TB) leukemia and with M14 melanoma was greater than 100 µM throughout. The TGI with MOLT-4 leukemia, with NCI-H226 lung, in the test on OVCAR-3 ovarian, with SF-539 CNS and in the test on TK-10 renal was greater than 100 µM throughout.

As for `Cc1ccc(O)c(C(c2cc(C)ccc2O)c2cc([N+](=O)[O-])ccc2O)c1`, the TGI came out at 33.9 µM with 786-0 renal; 27.1 µM with ACHN renal; 45.9 µM in the test on COLO 205 colon; 36.1 µM with HCT-15 colon; 11.7 µM in the test on HL-60(TB) leukemia; 24.5 µM in the test on M14 melanoma. In addition, the TGI was found to be 35 µM in the test on MOLT-4 leukemia; 55.8 µM in the test on NCI-H226 lung; 25.4 µM in the test with OVCAR-3 ovarian; 33.9 µM in the test with SF-539 CNS; 34.8 µM in the test with TK-10 renal.

For `O=C(CCN1CCCC1)c1ccc(Oc2ccc(F)cc2)cc1`, the TGI with 786-0 renal is 31.8 µM; in the test with ACHN renal, greater than 100 µM; in the test on COLO 205 colon, 56.7 µM; in the test with HCT-15 colon, greater than 100 µM; with HL-60(TB) leukemia it was 37.8 µM; in the test with M14 melanoma, 99.5 µM. The TGI was 43.3 µM in the test on MOLT-4 leukemia; greater than 100 µM in the test with NCI-H226 lung; greater than 100 µM in the test with OVCAR-3 ovarian; greater than 100 µM in the test with SF-539 CNS; greater than 100 µM with TK-10 renal.

`CC(=O)OCC1OC(n2c(O)c(N=NC(N)=S)c3ccc([N+](=O)[O-])cc32)C(OC(C)=O)C1OC(C)=O` (stereo not given): the TGI with 786-0 renal is 44.4 µM; in the test on ACHN renal it was greater than 100 µM; with COLO 205 colon it was greater than 100 µM; in the test on HCT-15 colon it was greater than 100 µM; in the test on HL-60(TB) leukemia it was 62.7 µM; with M14 melanoma it was greater than 100 µM. The TGI is 54.9 µM in the test on MOLT-4 leukemia; 84.7 µM with NCI-H226 lung; 63.9 µM with OVCAR-3 ovarian; 70.2 µM in the test on SF-539 CNS; greater than 100 µM in the test on TK-10 renal.

Consider `O=c1c2ccccc2nc(N/N=C/c2ccc(Cl)cc2)n1-c1ccccc1`, for which the TGI in the test on 786-0 renal, in the test on ACHN renal, with COLO 205 colon, in the test on HCT-15 colon, with HL-60(TB) leukemia and in the test with M14 melanoma was greater than 100 µM each time. Also, the TGI in the test on MOLT-4 leukemia, in the test with NCI-H226 lung, in the test on OVCAR-3 ovarian, in the test on SF-539 CNS and in the test with TK-10 renal was greater than 100 µM throughout.

Source of the values: PubChem BioAssay (NCI).
